Patent US6395768B1, “Uses for indole-3-propionic acids and salts and esters thereof” (South Alabama Medical Science Foundation, priority 1998, dated 2002)

Legend:
PC12 cells = assay: Lipid peroxidation (malondialdehyde levels) in cells exposed to Aβ or DDTC; assay type: cell-based, rat; settings: PC12 cells exposed to amyloid peptide Aβ(1-42) or DDTC, with IPA; FIG. 4
Text: In order to investigate the possibility that the cytoprotective properties of IPA are also the result, at least in part, of anti-oxidant activity, the -levels of malondialdehyde (“MDA”), a marker of lipid peroxidation, in PC12 cells exposed to Aβ or to oxidative stress were examined. Oxidative stress was delivered by exposing cells to […] (“DDTC”), an inhibitor of superoxide dismutase and an established model of oxidative injury. The PC12 cells were exposed to either amyloid peptide alone or amyloid peptide along with IPA. In other experiments, the cells were exposed to either DDTC alone or DDTC with IPA.

PC12 neuroblastoma cells = assay: Prevention of cell death induced by oxidative stress (DDTC, superoxide dismutase inhibition); assay type: cell-based, rat; settings: varying amounts of DDTC and IPA, FIG. 5
Method: To further confirm the observations shown in Example 4, we studied whether IPA was effective in preventing death of cells exposed to oxidative stress (DDTC). PC12 neuroblastoma cells were treated with varying amounts of DDTC, with or without varying amounts of IPA. The anti-oxidant activity of IPA is shown by preventing cell death of neurblastoma cells induced by inhibition of the superoxide dismutase by DDTC.

Aβ (1-40) = Aβ (1-40) (Homo sapiens, UniProt P05067); assay: Aβ fibrillogenesis, thioflavin T fluorescence (β sheet formation); assay type: biochemical; settings: 150 μM Aβ (1-40), 300 μM IPA, sodium salt
Aβ (1-40), sequence (P05067 672-711): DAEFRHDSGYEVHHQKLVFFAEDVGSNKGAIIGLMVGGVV
Method: As a control, the ultrapure water used to dissolve the IPA containing an equivalent amount of sodium chloride was added to 150 μM Aβ (1-40) at a pH of 7. In one experiment, each of the solutions (i.e., the solution containing IPA and the control solution) was incubated for 24 hours. In a second experiment, each of the solutions was incubated for 48 hours. At the end of each incubation period, 50 mM glycine-NaOH buffer (pH 9.2) containing 2 μM thioflavin T was added to each sample (5 μL) to a final volume of 2 mL. Fluorescence, which is a direct measure of β sheet formation, was measured at an excitation wavelength of 435 nm and an emission wavelength of 485 nm using a Hitachi F-2000 fluorescence spectrometer. The average and standard deviations of the mean of 3 samples per condition were determined, and the results are presented (as bar graphs) in FIG. 6A (24 hour incubation) and FIG. 6B (48 hour incubation).

[1] = test system: human neuroblastoma cell line SK-N-SH; assay: Cytoprotection against Aβ(25-35) toxicity, cell viability; assay type: cell-based; settings: SK-N-SH cells, 50 μM Aβ (25-35), 50 μM compound; FIG. 1
Method: To illustrate the cytoprotective affects of IPA against the cytotoxic effects of Aβ, cells of the human neuroblastoma cell line SK-N-SH were used. These cells were exposed to 50 μM Aβ (25-35), the actively toxic fragment of Aβ (Yankner et al., 1990) with or without 50 μM of IPA. As a control, the experiments were repeated without Aβ. As a positive control, the well-known anti-oxidant, phenyl-N-t-butylnitrone (“PBN”) was substituted for IPA.

Row | thioflavin T fluorescence (β sheet formation) relative to control (Aβ (1-40); pH 7, 24 hour incubation, FIG. 6A) | thioflavin T fluorescence (β sheet formation) relative to control (Aβ (1-40); pH 7, 48 hour incubation, FIG. 6B) | SMILES | production of malondialdehyde (MDA), marker of lipid peroxidation (PC12 cells) | survival of cells exposed to DDTC (PC12 neuroblastoma cells) | protective activity against cytotoxic effect of Aβ (viability, percent) [1]
1 | significantly less | significantly less | O=C(O)CCc1c[nH]c2ccccc12 [IPA, indole-3-propionic acid] | significantly decreases the production of malondialdehyde | increases the survival of cells exposed to DDTC | 
2 |  |  | CC(C)(C)[N+]([O-])=Cc1ccccc1 [PBN, phenyl-N-t-butylnitrone] |  |  | strong protective activity
